Laboratory results reported in the NIST ThermoML archive (doi:10.1016/j.fluid.2017.10.025).
± gives the expanded uncertainty stated by the source.

Key:
[1] = 293.15 K; 101.33 kPa; Liquid; buoyancy
[2] = refractive index (Na D-line) (dimensionless); conditions: 298.15 K; 101.33 kPa; Liquid; 2AWJ refractometer

Structure (SMILES)	mass density [1]	refractive index [2]
O [water]	998.3 ± 0.6 kg/m3	1.3327 ± 0.0002
C=CCO [2-propenol]	855 ± 0.7 kg/m3	1.4129 ± 0.0003
